One block for each compound: values may come before it.
What was measured:
[1] = Oral bioavailability study in rabbits (serum gallium by graphite furnace atomic absorption); type: in vivo, New Zealand white rabbits; settings: oral gavage; for Mean gallium content of rabbit serum: 4 ml per kg, 10 mg elemental gallium per 4 ml, fasted 18 hours, 3 animals
Procedure: A test of the oral bioavailability of the 3:1 ethyl maltol:gallium complex in rabbits was conducted. In this test, the complex was given to rabbits and compared to a solution of gallium nitrate. Six female New Zealand white rabbits weighing between 2.68 and 2.91 kg were used, and were not fed for 18 hours before starting the experiment. A suspension of the 3:1 gallium ethyl maltol complex in double distilled water was prepared with a concentration of 10 mg elemental gallium per 4 ml of suspension. […] A small amount of solid sodium carbonate was added to the latter solution to bring the pH up to about 6. Each of the two solutions was given to three rabbits by oral gavage (through a tube inserted through the mouth to the stomach) in the amount of 4 ml per kg of body weight. The stomach tubes were flushed by three ml of water following administration of the solutions.
Six ml of blood was taken from each, rabbit at 1 hour, 2 hours, 4 hours, 8 hours, and 24 hours following administration of the solutions, and the serum separated and frozen. Control samples of blood were taken 24 hours earlier. The frozen serum samples were then sent to an independent testing laboratory for determination of the gallium contents by graphite furnace atomic absorption analysis. The testing laboratory received numbered serum samples, and never had any knowledge of the experimental conditions used to produce the samples. Due to uncertainties in the analytical procedures for gallium in serum, the relative proportions of gallium in the serum samples are considered more significant than the actual reported concentrations.

[2] = Solubility in distilled deionized water
Excerpt: Under some conditions, water may also be incorporated into the structure.

[3] = type: physicochemical
Procedure: The complex was studied at two concentrations in double distilled deionized water: […]. The pH was adjusted by adding either 1N HCl or 1N Na2 CO3. The stability of the complex was determined using ultraviolet spectroscopy over the region 200-450 nm at 25° C. […] An isobesic point occurs over much of the pH range at about 290 nm. In the very dilute solutions (2.5×10^-6 M), the neutral 3:1 complex appears to be stable from about pH 4.5 to 9.5. For the less dilute solutions (1.0×10^-2 M), the determination was more difficult due to the very high absorbance.

rabbits = settings: rabbit, in vivo; cited from earlier work

Compound: CCc1occc(=O)c1[O][Ga]([O]c1c(CC)occc1=O)[O]c1c(CC)occc1=O [Gallium Ethyl Maltol, 3:1 complex of ethyl maltol and gallium]
Mean gallium content of rabbit serum ([1]; 1 hour): 90 ng/mL | Mean gallium content of rabbit serum ([1]; 2 hours): 274 ng/mL | Mean gallium content of rabbit serum ([1]; 4 hours): 260 ng/mL | Mean gallium content of rabbit serum ([1]; 8 hours): 212 ng/mL | Mean gallium content of rabbit serum ([1]; 24 hours): 84 ng/mL | Oral absorption compared with gallium nitrate ([1]; rabbits, equal volume and gallium concentration, stomach acid not counteracted): absorbed in significantly higher amounts than the gallium nitrate suspension | Solubility ([2]; distilled deionized water, 23° C.): about 5 millimolar

Solubility ([2]; water): about 24 millimolar
Compound: Cc1occc(=O)c1[O-].Cc1occc(=O)c1[O-].Cc1occc(=O)c1[O-].[Ga+3] [Gallium Maltol]
pH stability region of the neutral 3:1 complex (in words) [3]: very similar to that of the highly dilute solution, possibly slightly wider

Compound: Cc1occc(=O)c1[O][Al]([O]c1c(C)occc1=O)[O]c1c(C)occc1=O [aluminum maltol complex]
Neurotoxicity (rabbits): highly neurotoxic

Compound: O=[N+]([O-])[O-].O=[N+]([O-])[O-].O=[N+]([O-])[O-].[Ga+3] [gallium nitrate, reference compound]
Mean gallium content of rabbit serum ([1]; 1 hour): 51 ng/mL | Mean gallium content of rabbit serum ([1]; 2 hours): 99 ng/mL | Mean gallium content of rabbit serum ([1]; 4 hours): 118 ng/mL | Mean gallium content of rabbit serum ([1]; 8 hours): 103 ng/mL | Mean gallium content of rabbit serum ([1]; 24 hours): 64 ng/mL
